Experimental data published in PubChem BioAssay (NCI).
Several values for one entry are separate records, joined by “and”; a condition that tells them apart may be missing. Equal entries are not always repeated.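 96-well plates; 48 h exposure; 5 concentrations. Endpoints by linear interpolation between flanking doses. Not reached: highest tested concentration assigned. GI50: concentration for 50% inhibition of growth. Definition used: TGI = concentration required for complete inhibition of growth.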

Legend:
Experiment in all cases: NCI tumour cell line growth inhibition, 48 h
MDA-MB-435 = tested on: MDA-MB-435
DLD-1 colon = tested on: DLD-1 colon
HOP-18 NSCLC = tested on: HOP-18 NSCLC
MDA-N = tested on: MDA-N
BT-549 breast = tested on: BT-549 breast
RXF-631 renal = tested on: RXF-631 renal
P388/ADR leukemia = tested on: P388/ADR leukemia
P388 leukemia = tested on: P388 leukemia
SN12K1 renal = tested on: SN12K1 renal

| Structure (SMILES) | TGI (DLD-1 colon) | TGI (HOP-18 NSCLC) | TGI (RXF-631 renal) | other results |
| --- | --- | --- | --- | --- |
| O=C(CC1(O)C(=O)Nc2c(Cl)cc(Cl)cc21)c1ccc(Br)cc1Br (centres undefined) | 24.1 µM | 27.9 µM | 9.25 µM | TGI (MDA-MB-435): 25.5 µM; TGI (MDA-N): 21.8 µM; TGI (BT-549 breast): 22.3 µM |
| O=CN/C=C/c1cc(O)ccc1O | 34.4 µM | > 56.8 µM |  | TGI (P388/ADR leukemia): 4.14 µM; TGI (P388 leukemia): 5.2 µM; TGI (SN12K1 renal): 32.4 µM |
| O=S1(=O)c2ccccc2NC(c2ccc3ccccc3c2)CC1c1ccccc1F (centres undefined) | > 100 µM | 56.1 µM | > 100 µM |  |
| O=C(O)c1ccccc1[Se][Se]c1ccccc1C(=O)O | > 100 µM | > 100 µM | > 100 µM |  |
| COC(=O)[C@@H]1[C@H](O)[C@H](C)[C@H](O)[C@@](C)(O)/C=C\C=C(C)C(=O)Nc2c(C)c(OC(C)=O)c3c(c2O)C(=O)C(C)=C2OCOC(=C23)C(C)=C[C@@](C)(O)[C@H](O)[C@@H](C)[C@H]1OC(C)=O | > 100 µM and 66.9 µM | > 100 µM and 66.9 µM | > 100 µM and 66.9 µM | GI50 (DLD-1 colon): 40.7 µM; GI50 (HOP-18 NSCLC): 41.3 µM; GI50 (RXF-631 renal): > 100 µM and 39.8 µM and 36.4 µM |
| COC(=O)CC1CCN(C#N)CC1CC[N+](=O)[O-] (centres undefined) | > 100 µM | > 100 µM | > 100 µM |  |
| C/C(CC(=O)CCC(=O)Nc1cccc(C(F)(F)F)c1)=N\NC(=O)NN | > 100 µM | > 100 µM | > 100 µM |  |
